Active and inactive are the calls of the source. The rule behind the calls is not given here.

Data set [1] is described as follows: Stability of compound in sodium carbonate buffer at pH 10 measured after 48 hrs by 1H NMR analysis. The format is physicochemical. As to conditions: pH 10, 48 h.
For a further data set, the system named is U-87 MG. Put plainly: Antiproliferative activity against human U-87 MG cells assessed as inhibition of cell proliferation incubated for 72 hrs by CCK8 assay. Type of data set: functional, cell-based, U-87MG ATCC. A general note: Formazan colour is commonly taken as a measure of viable cells.
The test system of data set [2] is U-118-MG. Put plainly: Antiproliferative activity against human U-118-MG cells assessed as inhibition of cell proliferation incubated for 72 hrs by CCK8 assay. The format is functional, cell-based.
The subject of data set [3] is U-118-MG. Put plainly: Induction of apoptosis in human U-118-MG cells incubated for 24 hrs by Annexin V-FITC/PI staining based flow cytometric analysis. As to conditions: dose 3-40 µM. The format is functional, cell-based. (In general: A flow cytometer gives signals particle by particle.)
The subject of data set [4] is U-118-MG. Put plainly: Induction of apoptosis in human U-118-MG cells assessed as downregulation of c-Myc expression level at 1 to 40 uM incubated for 24 hrs by Western blot analysis. The format is functional, cell-based. As to conditions: dose 1-40 µM. A general note: In western blotting, separated proteins are transferred to a membrane and probed.
The subject of data set [5] is U-118-MG. Put plainly: Inhibition of cell migration in human U-118-MG cells assessed as decrease in number of migrating cells at 0.1 uM incubated for 24 hrs by transwell assay. The format is functional, cell-based.
Data set [6] concerns U-118-MG. Put plainly: Cytotoxicity against human U-118-MG cells assessed as reduction in cell viability at 0.1 to 10 uM incubated for 24 hrs. The format is functional, cell-based. The note with it: dose 0.1-10 µM.
Data set [7] relates to U-118-MG. Nature of the data set: Cell cycle arrest in human U-118-MG cells assessed as accumulation of cells at G2 phase at 3 uM incubated for 24 hrs by flow cytometric analysis (reference value: 30.6 %). The format is functional.
Data set [8] has as its system U-118-MG. Put plainly: Cell cycle arrest in human U-118-MG cells assessed as accumulation of cells at G1 phase at 30 uM incubated for 24 hrs by flow cytometric analysis (reference value: 56.2 %). Type of data set: functional.
Data set [9] deals with U-118-MG. Nature of the data set: Cell cycle arrest in human U-118-MG cells assessed as accumulation of cells at S phase at 30 uM incubated for 24 hrs by flow cytometric analysis (reference value: 10.7 %). The format is functional.
Data set [10] deals with U-118-MG. Put plainly: Cell cycle arrest in human U-118-MG cells assessed as accumulation of cells at G2 phase at 30 uM incubated for 24 hrs by flow cytometric analysis (reference value: 30.6 %). The format is functional.
Data set [11] can be described thus: Observed clearance in Sprague-Dawley rat at 5 mg/kg, ip. The format is ADME, organism-based. As to conditions: in vivo.
Data set [12] is described as follows: Observed volume of distribution in Sprague-Dawley rat at 5 mg/kg, ip. The format is ADME, organism-based. As to conditions: in vivo.
Data set [13] is described as follows: Half-life in Sprague-Dawley rat at 5 mg/kg, ip. Type of data set: ADME, organism-based. The note with it: in vivo.
Data set [14] in a line: Tmax in Sprague-Dawley rat at 5 mg/kg, ip. Type of data set: ADME, organism-based. As to conditions: in vivo.
The nature of data set [15]: Cmax in Sprague-Dawley rat at 5 mg/kg, ip. Type of data set: ADME, organism-based. The note with it: in vivo.
Data set [16] is described as follows: Drug distribution in Sprague-Dawley rat brain at 5 mg/kg, ip measured after 0.5 hrs. Type of data set: ADME, organism-based. The note with it: read-out: Ct.
Data set [17] is described as follows: Toxicity in male BALB/c nude mouse xenografted with human U-118-MG cells assessed as metastasis in heart at 2.5 to 10 mg/kg, ip administered daily for 4 weeks by H and E staining based analysis. The format is organism-based. The note with it: in vivo, 672 h, dose 2.5-10 mg/kg.
Data set [18] can be described thus: Toxicity in male BALB/c nude mouse xenografted with human U-118-MG cells assessed as metastasis in spleen at 2.5 to 10 mg/kg, ip administered daily for 4 weeks by H and E staining based analysis. The format is organism-based. As to conditions: in vivo, 672 h, dose 2.5-10 mg/kg.
Data set [19] can be described thus: Toxicity in male BALB/c nude mouse xenografted with human U-118-MG cells assessed as metastasis in lung at 2.5 to 10 mg/kg, ip administered daily for 4 weeks by H and E staining based analysis. The format is organism-based. The note with it: in vivo, 672 h, dose 2.5-10 mg/kg.

The IC50 is the concentration that gives 50% inhibition. A word on the half-life: it is how long it takes for the measured level to halve. A higher half-life goes with slow loss. A word on the Tmax: it is the time from dosing to the highest level. In general, Cmax refers to the maximum level reached in the sampled fluid or tissue. In the case of `COc1ccc2c(c1OC)C(=O)O[C@@H]2[C@H]1c2c(c(Br)c3c(c2OC)OCO3)CCN1C(F)(F)F`, the Stability result in [1] is recorded as “Stable”. Further, the figures for the IC50 in the data set on U-87 MG and in the data set on U-118-MG [2] were 7.46 µM and 1.55 µM, respectively. In addition, the Activity result with U-118-MG [3] is “Dose-dependent-effect”; in the data set with U-118-MG [7], 31.7%; in the data set with U-118-MG [8], 29.5%; in the data set on U-118-MG [9] it was 14.8%; with U-118-MG [10], 52.2%; in data set [17], “Non-toxic”. Besides, the Activity result in data set [18] and in data set [19] was “Non-toxic” in each case. In addition, the result in the data set on U-118-MG [4] was Active. In the data set on U-118-MG [5], the inhibition entry is “Active”. Moreover, the result in the data set with U-118-MG [6] was inactive. The molecule further came in with a CL in data set [11] of 135 mL/min/kg. For the same molecule, the Vd in data set [12] amounted to 65.2 L/kg. In [13], this molecule had a half-life of 5.64 h. The Tmax in data set [14] was 0.5 h. The molecule further yielded a Cmax in [15] of 152 ng/mL. In addition, the concentration at 0.5 h in data set [16] worked out at 35.4 ng/g.

The values are drawn from ChEMBL document CHEMBL6078714, “Discovery of N-Trifluoromethylated Noscapines as Novel and Potent Agents for the Treatment of Glioblastoma” (J Med Chem, 2025).
